Source: patent publication US9796672B2, “Isoindoline compositions and methods for treating neurodegenerative disease” (Cognition Therapeutics, Inc., priority 2014, dated 2017)

Molecular target: Sigma-2 receptor
Assay: Sigma-2 receptor competitive radioligand binding assay
Parameters: species or system rat
Conditions: read-out: Sigma-2 Receptor Affinity, Ki

Compound | Ki
COc1cc(CC[C@@H](C)N2Cc3ccc(F)cc3C2)ccc1OCCO [compound 30] | 910 nM
C[C@H](CCc1ccc(O)c(OC(F)(F)F)c1)N1Cc2ccc(F)cc2C1 [compound 31] | 58 nM
COc1cc(CCC(C)(C)N2Cc3ccc(F)cc3C2)ccc1OCCO [compound 45] | 190 nM
COc1cc(CC[C@@H](C)N2Cc3cc4c(cc3C2)OCO4)ccc1OCCO [compound 52] | 540 nM
CC(C)(CCc1ccc(O)c(OC(F)(F)F)c1)N1Cc2cccc(C(=O)O)c2C1 [compound 56] | 10000 nM
CN(C)C(=O)c1cccc2c1CN(C(C)(C)CCc1ccc(O)c(OC(F)(F)F)c1)C2 [compound 57] | 95 nM

Now those with a lower Ki, led by results:

Ki | Compound
22 nM | COc1cc2c(cc1OC)CN(C(C)(C)CCc1ccc(OCCO)c(OC)c1)C2 [compound 48]
18 nM | CC(C)(CCc1ccc(O)c(OC(F)(F)F)c1)N1Cc2cccc(F)c2C1 [compound 54]
17 nM | COc1cc(CCC(C)(C)N2Cc3cccc(F)c3C2)ccc1O [compound 53]
6.9 nM | CC(C)(CCc1ccc(O)c(OC(F)(F)F)c1)N1Cc2ccc(S(C)(=O)=O)cc2C1 [compound 61]
6.2 nM | CC(C)Oc1ccc(CCC(C)(C)N2Cc3ccc(F)cc3C2)cc1OC(C)C [compound 42]
5.2 nM | CC(C)(CCc1ccc(F)cc1)N1Cc2cc3c(cc2C1)OCO3 [compound 36]
3.6 nM | CC(C)(CCc1ccc(F)cc1)N1Cc2ccc(F)cc2C1 [compound 35]

Test system: neuronal cultures
Assay: Functional neuronal phenotype in neuronal cultures
Format: cell-based
Parameters: key: Antagonist: antagonists (block Abeta signaling); Agonist: agonists (block Abeta signaling with U-shaped dose-response curve and toxicity at high doses); Inactive: inactive (no effect in neuronal cultures)
Conditions: not given

Compound | neuronal phenotype
COc1cc(CC[C@@H](C)N2Cc3ccc(F)cc3C2)ccc1OCCO [compound 30] | Antagonist
C[C@H](CCc1ccc(O)c(OC(F)(F)F)c1)N1Cc2ccc(F)cc2C1 [compound 31] | Antagonist
CC(C)(CCc1ccc(F)cc1)N1Cc2ccc(F)cc2C1 [compound 35] | Antagonist
CC(C)(CCc1ccc(F)cc1)N1Cc2cc3c(cc2C1)OCO3 [compound 36] | Antagonist
CC(C)Oc1ccc(CCC(C)(C)N2Cc3ccc(F)cc3C2)cc1OC(C)C [compound 42] | Agonist
COc1cc(CCC(C)(C)N2Cc3ccc(F)cc3C2)ccc1OCCO [compound 45] | Inactive
COc1cc2c(cc1OC)CN(C(C)(C)CCc1ccc(OCCO)c(OC)c1)C2 [compound 48] | Inactive
COc1cc(CC[C@@H](C)N2Cc3cc4c(cc3C2)OCO4)ccc1OCCO [compound 52] | Antagonist
COc1cc(CCC(C)(C)N2Cc3cccc(F)c3C2)ccc1O [compound 53] | Inactive
CC(C)(CCc1ccc(O)c(OC(F)(F)F)c1)N1Cc2cccc(F)c2C1 [compound 54] | Antagonist
CC(C)(CCc1ccc(O)c(OC(F)(F)F)c1)N1Cc2cccc(C(=O)O)c2C1 [compound 56] | Weak and Antagonist
CN(C)C(=O)c1cccc2c1CN(C(C)(C)CCc1ccc(O)c(OC(F)(F)F)c1)C2 [compound 57] | Inactive
CC(C)(CCc1ccc(O)c(OC(F)(F)F)c1)N1Cc2ccc(S(C)(=O)=O)cc2C1 [compound 61] | Antagonist

Molecular target: potassium channel hERG (Homo sapiens (Human), UniProt Q12809)
Assay: In vitro toxicity, hERG inhibition
Format: biochemical
Conditions: not given

potassium channel hERG, sequence (Q12809 whole entry): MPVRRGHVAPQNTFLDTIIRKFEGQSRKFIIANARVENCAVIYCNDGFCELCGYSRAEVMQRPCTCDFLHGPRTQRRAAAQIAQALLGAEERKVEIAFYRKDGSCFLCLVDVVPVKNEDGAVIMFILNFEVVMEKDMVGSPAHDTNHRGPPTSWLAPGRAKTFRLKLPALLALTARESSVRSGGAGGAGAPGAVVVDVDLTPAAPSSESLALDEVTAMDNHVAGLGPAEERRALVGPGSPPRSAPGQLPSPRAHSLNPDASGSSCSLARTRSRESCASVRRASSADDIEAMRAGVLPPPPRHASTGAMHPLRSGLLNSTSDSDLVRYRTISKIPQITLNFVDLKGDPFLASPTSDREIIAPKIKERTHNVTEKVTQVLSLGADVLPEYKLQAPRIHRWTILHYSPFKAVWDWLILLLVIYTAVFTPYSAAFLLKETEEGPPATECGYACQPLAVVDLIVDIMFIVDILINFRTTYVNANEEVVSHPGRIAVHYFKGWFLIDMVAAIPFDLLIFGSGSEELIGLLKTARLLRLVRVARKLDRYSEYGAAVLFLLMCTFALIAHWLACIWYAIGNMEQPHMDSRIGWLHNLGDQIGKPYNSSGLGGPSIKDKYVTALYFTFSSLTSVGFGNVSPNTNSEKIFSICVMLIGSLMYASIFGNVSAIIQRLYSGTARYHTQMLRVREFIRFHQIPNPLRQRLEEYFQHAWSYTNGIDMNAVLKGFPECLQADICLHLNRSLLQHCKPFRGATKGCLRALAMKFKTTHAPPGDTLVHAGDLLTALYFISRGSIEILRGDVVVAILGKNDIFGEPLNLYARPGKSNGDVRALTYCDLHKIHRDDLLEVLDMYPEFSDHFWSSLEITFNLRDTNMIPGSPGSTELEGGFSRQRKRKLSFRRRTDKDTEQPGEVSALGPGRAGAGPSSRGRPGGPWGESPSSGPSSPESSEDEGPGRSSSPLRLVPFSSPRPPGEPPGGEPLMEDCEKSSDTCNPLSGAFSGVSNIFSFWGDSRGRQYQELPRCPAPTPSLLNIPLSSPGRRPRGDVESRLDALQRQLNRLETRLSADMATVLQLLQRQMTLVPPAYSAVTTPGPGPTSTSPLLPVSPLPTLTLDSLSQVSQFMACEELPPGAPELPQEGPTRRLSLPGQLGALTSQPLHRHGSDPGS

Compound | IC50
COc1cc(CC[C@@H](C)N2Cc3ccc(F)cc3C2)ccc1OCCO [compound 30] | 4700 nM
C[C@H](CCc1ccc(O)c(OC(F)(F)F)c1)N1Cc2ccc(F)cc2C1 [compound 31] | 1900 nM
CC(C)(CCc1ccc(F)cc1)N1Cc2ccc(F)cc2C1 [compound 35] | 130 nM
CC(C)(CCc1ccc(F)cc1)N1Cc2cc3c(cc2C1)OCO3 [compound 36] | 19 nM
CC(C)Oc1ccc(CCC(C)(C)N2Cc3ccc(F)cc3C2)cc1OC(C)C [compound 42] | 800 nM
COc1cc(CCC(C)(C)N2Cc3ccc(F)cc3C2)ccc1OCCO [compound 45] | 220 nM
COc1cc2c(cc1OC)CN(C(C)(C)CCc1ccc(OCCO)c(OC)c1)C2 [compound 48] | 1700 nM
COc1cc(CC[C@@H](C)N2Cc3cc4c(cc3C2)OCO4)ccc1OCCO [compound 52] | 3200 nM
COc1cc(CCC(C)(C)N2Cc3cccc(F)c3C2)ccc1O [compound 53] | 2800 nM
CC(C)(CCc1ccc(O)c(OC(F)(F)F)c1)N1Cc2cccc(F)c2C1 [compound 54] | 2500 nM
CC(C)(CCc1ccc(O)c(OC(F)(F)F)c1)N1Cc2cccc(C(=O)O)c2C1 [compound 56] | 49000 nM
CN(C)C(=O)c1cccc2c1CN(C(C)(C)CCc1ccc(O)c(OC(F)(F)F)c1)C2 [compound 57] | 5000 nM
CC(C)(CCc1ccc(O)c(OC(F)(F)F)c1)N1Cc2ccc(S(C)(=O)=O)cc2C1 [compound 61] | 790 nM

Molecular target: Sigma-1 receptor
Assay: Sigma-1 receptor competitive radioligand binding assay
Conditions: read-out: Sigma-1 Receptor Affinity, Ki
Method: Radioligand binding assays for Sigma-1 receptors and Sigma-2 receptors were carried out by a commercial contract research organization. For Sigma-1 binding, various concentrations of test compounds from 100 μM to 1 nM were used to displace 8 nM [^3H](+)pentazocine from endogenous receptors on Jurkat cell membranes (Ganapathy M E et al. 1991, J Pharmacol. Exp. Ther. 289:251-260). 10 μM Haloperidol was used to define non-specific binding. […] 10 μM Haloperidol was used to define non-specific binding. Reactions were terminated by rapid filtration through Whatman GF/C filters using a Brandel 12R cell harvester followed by two washes with ice-cold buffer. Radioactivity on the dried filter discs was measured using a liquid scintillation analyzer (Tri-Carb 2900TR; PerkinElmer Life and Analytical Sciences). The displacement curves were plotted and the Ki values of the test ligands for the receptor subtypes were determined using GraphPad Prism (GraphPad Software Inc., San Diego, Calif.). The percentage specific binding was determined by dividing the difference between total bound (disintegrations per minute) and nonspecific bound (disintegrations per minute) by the total bound (disintegrations per minute).

Compound | Ki
COc1cc(CC[C@@H](C)N2Cc3ccc(F)cc3C2)ccc1OCCO [compound 30] | 220 nM
C[C@H](CCc1ccc(O)c(OC(F)(F)F)c1)N1Cc2ccc(F)cc2C1 [compound 31] | 3.7 nM
COc1cc(CCC(C)(C)N2Cc3ccc(F)cc3C2)ccc1OCCO [compound 45] | 2800 nM
COc1cc(CC[C@@H](C)N2Cc3cc4c(cc3C2)OCO4)ccc1OCCO [compound 52] | 130 nM
CC(C)(CCc1ccc(O)c(OC(F)(F)F)c1)N1Cc2cccc(C(=O)O)c2C1 [compound 56] | 10000 nM
CN(C)C(=O)c1cccc2c1CN(C(C)(C)CCc1ccc(O)c(OC(F)(F)F)c1)C2 [compound 57] | 700 nM

Continued, values first:

Ki | Compound
3600 nM | COc1cc2c(cc1OC)CN(C(C)(C)CCc1ccc(OCCO)c(OC)c1)C2 [compound 48]
74 nM | CC(C)(CCc1ccc(O)c(OC(F)(F)F)c1)N1Cc2cccc(F)c2C1 [compound 54]
110 nM | COc1cc(CCC(C)(C)N2Cc3cccc(F)c3C2)ccc1O [compound 53]
33 nM | CC(C)(CCc1ccc(O)c(OC(F)(F)F)c1)N1Cc2ccc(S(C)(=O)=O)cc2C1 [compound 61]
100 nM | CC(C)Oc1ccc(CCC(C)(C)N2Cc3ccc(F)cc3C2)cc1OC(C)C [compound 42]
4.1 nM | CC(C)(CCc1ccc(F)cc1)N1Cc2cc3c(cc2C1)OCO3 [compound 36]
2.1 nM | CC(C)(CCc1ccc(F)cc1)N1Cc2ccc(F)cc2C1 [compound 35]

Test system: not listed separately
Assay: Mouse liver microsome (MLM) stability
Format: in vitro ADME
Conditions: mouse, microsomes
Method: A first pharmacokinetic study was performed in microsomes of mice mouse liver microsomes, MLM) by a commercial contract research organization. The studies were performed according to Obach, R. S et al. (1997) J. Pharmacol. Exp. Ther., 283: 46-58, which is incorporated herein by reference.

Compound | Mouse liver microsomes, MLM t½
COc1cc(CC[C@@H](C)N2Cc3ccc(F)cc3C2)ccc1OCCO [compound 30] | 126 min
C[C@H](CCc1ccc(O)c(OC(F)(F)F)c1)N1Cc2ccc(F)cc2C1 [compound 31] | 6 min
COc1cc(CCC(C)(C)N2Cc3ccc(F)cc3C2)ccc1OCCO [compound 45] | 96 min
COc1cc(CC[C@@H](C)N2Cc3cc4c(cc3C2)OCO4)ccc1OCCO [compound 52] | 97 min
CC(C)(CCc1ccc(O)c(OC(F)(F)F)c1)N1Cc2cccc(C(=O)O)c2C1 [compound 56] | 617 min
CN(C)C(=O)c1cccc2c1CN(C(C)(C)CCc1ccc(O)c(OC(F)(F)F)c1)C2 [compound 57] | 26 min

More lines, now with the values ahead:

Mouse liver microsomes, MLM t½ | Compound
582 min | COc1cc2c(cc1OC)CN(C(C)(C)CCc1ccc(OCCO)c(OC)c1)C2 [compound 48]
12 min | CC(C)(CCc1ccc(O)c(OC(F)(F)F)c1)N1Cc2cccc(F)c2C1 [compound 54]
21 min | COc1cc(CCC(C)(C)N2Cc3cccc(F)c3C2)ccc1O [compound 53]
114 min | CC(C)(CCc1ccc(O)c(OC(F)(F)F)c1)N1Cc2ccc(S(C)(=O)=O)cc2C1 [compound 61]
14 min | CC(C)Oc1ccc(CCC(C)(C)N2Cc3ccc(F)cc3C2)cc1OC(C)C [compound 42]
47 min | CC(C)(CCc1ccc(F)cc1)N1Cc2cc3c(cc2C1)OCO3 [compound 36]
9 min | CC(C)(CCc1ccc(F)cc1)N1Cc2ccc(F)cc2C1 [compound 35]

Test system: Abeta oligomer-induced membrane trafficking deficits in primary hippocampal neurons
Assay: Membrane trafficking/exocytosis (MTT) assay
Conditions: read-out: Membrane Trafficking EC50; compound dosed prior to Abeta oligomer addition

Compound | EC50
COc1cc(CC[C@@H](C)N2Cc3ccc(F)cc3C2)ccc1OCCO [compound 30] | 300 nM
C[C@H](CCc1ccc(O)c(OC(F)(F)F)c1)N1Cc2ccc(F)cc2C1 [compound 31] | < 250 nM
CC(C)(CCc1ccc(F)cc1)N1Cc2ccc(F)cc2C1 [compound 35] | 2200 nM
CC(C)(CCc1ccc(F)cc1)N1Cc2cc3c(cc2C1)OCO3 [compound 36] | 860 nM
CC(C)Oc1ccc(CCC(C)(C)N2Cc3ccc(F)cc3C2)cc1OC(C)C [compound 42] | > 20000 nM
COc1cc(CCC(C)(C)N2Cc3ccc(F)cc3C2)ccc1OCCO [compound 45] | > 20000 nM
COc1cc2c(cc1OC)CN(C(C)(C)CCc1ccc(OCCO)c(OC)c1)C2 [compound 48] | > 20000 nM
COc1cc(CC[C@@H](C)N2Cc3cc4c(cc3C2)OCO4)ccc1OCCO [compound 52] | 300 nM
COc1cc(CCC(C)(C)N2Cc3cccc(F)c3C2)ccc1O [compound 53] | > 20000 nM
CC(C)(CCc1ccc(O)c(OC(F)(F)F)c1)N1Cc2cccc(F)c2C1 [compound 54] | 6500 nM
CC(C)(CCc1ccc(O)c(OC(F)(F)F)c1)N1Cc2cccc(C(=O)O)c2C1 [compound 56] | 300 nM
CN(C)C(=O)c1cccc2c1CN(C(C)(C)CCc1ccc(O)c(OC(F)(F)F)c1)C2 [compound 57] | > 20000 nM
CC(C)(CCc1ccc(O)c(OC(F)(F)F)c1)N1Cc2ccc(S(C)(=O)=O)cc2C1 [compound 61] | < 20 nM
